Measurements taken from PubChem BioAssay (NCI).
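Grown in 96-well plates, cells were treated for 48 hours with each compound at five concentrations. Insufficient inhibition: endpoint recorded as highest concentration tested. Here, GI50 denotes the concentration required for 50% inhibition of growth. TGI: concentration producing complete growth inhibition.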

Tests used:
Experiment in all cases: NCI tumour cell line growth inhibition, 48 h
BT-549 breast = test system: BT-549 breast
DU-145 prostate = test system: DU-145 prostate
MCF7 breast = test system: MCF7 breast
MDA-MB-435 = test system: MDA-MB-435
PC-3 prostate = test system: PC-3 prostate
DLD-1 colon = test system: DLD-1 colon
HOP-18 NSCLC = test system: HOP-18 NSCLC
KM20L2 colon = test system: KM20L2 colon
LXFL 529 NSCLC = test system: LXFL 529 NSCLC
P388 leukemia = test system: P388 leukemia
P388/ADR leukemia = test system: P388/ADR leukemia
SN12K1 renal = test system: SN12K1 renal

| SMILES | TGI (BT-549 breast) | TGI (DU-145 prostate) | TGI (MCF7 breast) | TGI (MDA-MB-435) | TGI (PC-3 prostate) | TGI (DLD-1 colon) | TGI (HOP-18 NSCLC) | TGI (KM20L2 colon) | TGI (LXFL 529 NSCLC) | also measured |
| --- | --- | --- | --- | --- | --- | --- | --- | --- | --- | --- |
| CCCCCCCCCCCCCCCC(=O)OCC1CCCN2CCCCC12 (stereo not given) | > 100 µM | > 100 µM | > 100 µM | > 100 µM | > 100 µM |  |  |  |  |  |
| CC[C@H](Nc1nc(N)nc(C)c1C#N)c1nc2cccc(NCc3ccc(C(=O)NO)cc3)c2c(=O)n1-c1ccccc1 | 5.2 µM | 6.53 µM | 9.06 µM |  | 3.3 µM |  |  |  |  | GI50 (BT-549 breast): 1.56 µM; GI50 (DU-145 prostate): 1.98 µM; GI50 (MCF7 breast): 2.01 µM; GI50 (PC-3 prostate): 0.905 µM |
| CCOC(=O)Nc1cc2c(c(N)n1)N=C(c1ccccc1)[C@H](C)N2 |  |  |  | < 0.0001 µM |  | 25.1 µM | > 100 µM | < 0.0001 µM | > 100 µM | GI50 (HOP-18 NSCLC): 29.1 µM |
| O=C(N/C(=C\c1cccc([N+](=O)[O-])c1)c1nc2[nH]c(=S)[nH]c(=O)c2[nH]1)c1ccccc1 |  |  |  |  |  | > 100 µM | > 100 µM | > 100 µM | > 100 µM |  |
| C/C(=N\Oc1cc(Cl)ncn1)c1ccccn1 | > 100 µM | > 100 µM | > 100 µM | > 100 µM | > 100 µM |  |  |  |  |  |
| NC(=S)Nc1cc(Cl)ccc1Cl |  |  |  |  |  | > 100 µM | > 100 µM | > 100 µM | > 100 µM |  |
| CC(=O)OC/C=C/Cn1ncc(=O)[nH]c1=O |  | > 100 µM | > 100 µM | > 100 µM | > 100 µM |  |  |  |  |  |
| CC(C)OC(=O)C1=C(O)c2ccccc2S(=O)(=O)N1 |  |  |  |  |  | > 100 µM | > 100 µM | > 100 µM | > 100 µM |  |
| O=C(CCl)NC(Cc1ccc(F)cc1)C(=O)O (stereo not given) |  |  | > 100 µM |  |  | > 100 µM | > 100 µM | > 100 µM |  | TGI (P388 leukemia): > 100 µM; TGI (P388/ADR leukemia): > 100 µM; TGI (SN12K1 renal): > 100 µM |
| CCOC(=O)[C@H]1Nc2c(cccc2[N+](=O)[O-])[C@H]2OCC[C@@H]12 |  |  |  |  |  | > 100 µM | > 100 µM | > 100 µM | > 100 µM |  |
| Cc1ccc(C[P+]2(c3ccccc3)CCCCC2)cc1 |  |  |  |  |  | > 100 µM |  | > 100 µM | 85.6 µM |  |
| Cc1ccc(S(=O)(=O)N/N=c2\c(C)c(C3=NS(=O)(=O)c4cc(S(N)(=O)=O)c(Cl)cc4N3)oc3c(Cl)cc(Cl)cc23)cc1 |  |  |  |  |  | > 100 µM | > 100 µM | > 100 µM | > 100 µM |  |
| COc1cc(N/N=C/C#N)cc(OC)c1OC |  | > 10 µM | > 10 µM | > 10 µM | > 10 µM |  |  |  |  |  |
| O=C1Nc2ccccc2S/C1=C\c1ccccc1C(F)(F)F | > 100 µM | > 100 µM | > 100 µM | > 100 µM | > 100 µM |  |  |  |  |  |
| CC1CCC(O)(C(C)(C(=O)O)c2ccccc2)CC1 (stereo not given) | > 100 µM | > 100 µM |  | > 100 µM | > 100 µM |  |  |  |  |  |
| Nc1nncc2c1ccn2C1OC(CO)C(O)C1O (stereo not given) |  |  |  |  |  | > 100 µM | > 100 µM | > 100 µM | > 100 µM |  |
| O=C(O)NCc1ccccc1 (tested in a mixture with another compound) | > 92.3 µM | > 100 µM | > 100 µM | > 86.8 µM | > 66.4 µM |  |  |  |  |  |
| C=C1CC[C@@H](Br)C(C)(C)[C@]12CCC(C)(O)C(Cl)C2 (stereo not given in full) |  |  |  |  |  | 32.6 µM | 59.1 µM | 32.9 µM |  |  |
| Cc1cc2c(cc1C)[n+](=O)c(C#N)c(Cl)n2[O-] | 38.1 µM | 43.4 µM | 27.5 µM | > 100 µM | > 100 µM |  |  |  |  |  |
| CCC1CN2CCC1CC2 (stereo not given) |  |  | > 100 µM |  |  | > 100 µM | > 100 µM | > 100 µM |  | TGI (P388 leukemia): > 100 µM; TGI (P388/ADR leukemia): > 100 µM; TGI (SN12K1 renal): > 100 µM |
| CC(=O)O[C@H]1CC[C@@]2(C)C(=CC[C@@H]3[C@@H]2CC[C@]2(C)Nc4c(cnn4S(C)(=O)=O)C[C@@H]32)C1 | 72.5 µM | > 100 µM | > 100 µM | > 100 µM | > 100 µM |  |  |  |  |  |
